Data on 23 compounds can be found in patent US20240059700A1, “NOVEL DIACYLGLYCERIDE O-ACYLTRANSFERASE 2 INHIBITORS” (Merck Sharp & Dohme LLC, priority 2020, published 2024).

This assay concerns the target human DGAT2 (hDGAT2) (Homo sapiens (Human), UniProt Q96PD7). Kind of assay: DGAT2 Enzymatic Activity Assay. It counts as biochemical. The settings on record: membrane prep of Sf-9 insect cells expressing hDGAT2; 13C18-triolein product by LC/MS/MS. The method, then:
Sf-9 insect cells were maintained in Grace's insect cell culture medium with 10% heated-inactivated fetal bovine serum, 1% Pluronic F-68 and 0.14 μg/ml Kanamycine sulfate at 27° C. in a shaker incubator. After infection with untagged baculovirus expressing human DGAT2 (hDGAT2) at multiplicity of infection (MOI) 3 for 48 hours, cells were harvested. Cell pellets were suspended in buffer containing 10 mM Tris-HCl pH 7.5, 1 mM EDTA, 250 mM sucrose and Complete Protease Inhibitor Cocktail (Sigma Aldrich), and sonicated on ice. Cell debris were removed by centrifugation at 2000×g for 15 minutes. Membrane fractions were isolated by ultracentrifugation (100,000×g), resuspended in the same buffer, and frozen (−80° C.) for later use. The protein concentration was determined with the Pierce™ BCA Protein Assay Kit (Thermo Fisher Scientific). Expression of protein levels was analyzed by immunoblotting with rabbit anti-DGAT2 antibody (Abcam, ab102831) and donkey anti-rabbit IgG H&L Alexa Fluor® 647 (Abcam, ab150075) followed by detection using Typhoon FLA9000 (GE Healthcare).
LC/MS/MS analyses were performed using Thermal Fisher's LX4-TSQ Vantage system. This system consists of an Agilent binary high-performance liquid chromatography (HPLC) pumps and a TSQ Vantage triple quadrupole MS/MS instrument. For each sample, 2 μL samples from the top organic layer of in-plate liquid-liquid extraction were injected onto a Thermo Betabasic C4 column (2.1 mm×20 mm, 5 μm particle size). The samples were then eluted using the following conditions; mobile phase: Isopropanol: acetonitrile/10 mM ammonium formate=50/35/15 (v/v/v), flow rate: 0.8 mL/min, temperature: 25° C. Data was acquired in positive mode using a heated electrospray ionization (HESI) interface. The operational parameters for the TSQ Vantage MS/MS instrument were a spray voltage of 3000 V, capillary temperature of 280° C., vaporizer temperature 400° C., sheath gas 45 arbitrary unit, Aux gas 10 arbitrary units, S-lens 165 and collision gas 1.0 mTorr. […] (SRM) chromatograms of ^13C18-triolein (Q1: 920.8>Q3:621.3) and internal standard ^13C21-triolein (Q1: 923.8>Q3:617.3) were collected for 33 sec. The peak area was integrated by Xcalibur Quan software. The ratio between the ^13C18 triolein generated in the reaction and spiked in internal standard ^13C21-triolein was used to generate percentage inhibition and IC50 values. Compound percentage inhibition was calculated by the following formula: Inhibition %=1−[(compound response−low control)/(high control−low control)]×100%. Potent compounds were titrated and IC50 were calculated by 4 parameter sigmoidal curve fitting formula.
DGAT2 activity was determined by measuring the amount of enzymatic product ^13C18-triolein (^13C-1,2,3-Tri(cis-9-octadecenoyl)glycerol) using the membrane prep mentioned above. The assay was carried out in ABgene 384-well assay plates in a final volume of 25 μL at rt. The assay mixture contained the following: assay buffer (100 mM Tris·Cl, pH 7.0, 20 mM MgCl2, 5% ethanol), 25 μM of diolein, 5 μM of ^13C oleoyl-CoA and 8 ng/μL of DGAT2 membrane.

Each structure is given as a SMILES string.

Sequence of human DGAT2 (hDGAT2) (Q96PD7 whole entry): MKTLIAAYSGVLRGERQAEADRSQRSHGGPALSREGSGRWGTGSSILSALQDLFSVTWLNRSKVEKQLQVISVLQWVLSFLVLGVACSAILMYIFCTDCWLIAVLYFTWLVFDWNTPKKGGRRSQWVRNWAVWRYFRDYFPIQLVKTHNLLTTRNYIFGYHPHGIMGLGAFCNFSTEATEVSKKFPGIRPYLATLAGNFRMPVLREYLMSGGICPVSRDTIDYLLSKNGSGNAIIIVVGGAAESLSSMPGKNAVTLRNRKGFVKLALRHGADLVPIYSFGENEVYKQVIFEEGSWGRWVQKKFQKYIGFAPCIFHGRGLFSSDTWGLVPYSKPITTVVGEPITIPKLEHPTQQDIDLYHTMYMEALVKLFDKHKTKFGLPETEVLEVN

The IC50 is the concentration that inhibits the measured activity by half. As for `Cc1ncc(OC(F)F)cc1-c1nn(C(C)C)c2cc(C(=O)NC3(C)CS(=O)(=O)C3)ncc12` [Example 35, 3-(5-(difluoromethoxy)-2-methylpyridin-3-yl)-1-isopropyl-N-(3-methyl-1,1-dioxidothietan-3-yl)-1H-pyrazolo[4,3-c]pyridine-6-carboxamide], the IC50 was found to be 285 nM.
Compound `CC(C)n1nc(-c2cncc(OC(F)F)c2)c2ncc(C(=O)N[C@H]3CCC[C@H]3O)cc21` [Example 105, 3-(5-(difluoromethoxy)pyridin-3-yl)-N-((1S,2R)-2-hydroxycyclopentyl)-1-isopropyl-1H-pyrazolo[4,3-b]pyridine-6-carboxamide] yielded an IC50 of 78 nM.
For `CC(C)n1nc(-c2cc(C3CC3)ccc2F)c2ncc(C(=O)NC3(C)CS(=O)(=O)C3)cc21` [Example 117, 3-(5-cyclopropyl-2-fluorophenyl)-1-isopropyl-N-(3-methyl-1,1-dioxidothietan-3-yl)-1H-pyrazolo[4,3-b]pyridine-6-carboxamide] the value was 9.6 nM; for `CCN1CCN(C(=O)c2cnc3c(-c4cncc(OC(F)F)c4)nn(C(C)C)c3c2)CC1` [Example 58, (3-(5-(difluoromethoxy)pyridin-3-yl)-1-isopropyl-1H-pyrazolo[4,3-b]pyridin-6-yl)(4-ethylpiperazin-1-yl)methanone], over 1000 nM.
For `CC(C)n1nc(-c2cc(OC(F)F)ccc2F)c2ncc(C(=O)NC(C)(C)CN(C)C)cc21` [Example 55, 3-(5-(difluoromethoxy)-2-fluorophenyl)-N-(1-(dimethylamino)-2-methylpropan-2-yl)-1-isopropyl-1H-pyrazolo[4,3-b]pyridine-6-carboxamide] the value was 212 nM.
In the case of `CC1(NC(=O)c2cnc3c(-c4cccc(OC(F)F)c4)nn(Cc4ccc(F)cc4)c3c2)CS(=O)(=O)C1` [Example 70, 3-(3-(difluoromethoxy)phenyl)-1-(4-fluorobenzyl)-N-(3-methyl-1,1-dioxidothietan-3-yl)-1H-pyrazolo[4,3-b]pyridine-6-carboxamide], inhibition was half-maximal at 40 nM (IC50).
For `Cn1nccc1-c1nn(C2CCOCC2)c2cc(C(=O)N[C@@]3(C)CCS(=O)(=O)C3)cnc12` [Example 65, N-[(3S)-3-methyl-1,1-dioxo-thiolan-3-yl]-3-(2-methylpyrazol-3-yl)-1-tetrahydropyran-4-yl-pyrazolo[4,3-b]pyridine-6-carboxamide] the value was 10000 nM; for `CC(C)n1nc(-c2cccc(C#N)c2)c2ncc(C(=O)NC3(C)CS(=O)(=O)C3)cc21` [Example 108, 3-(3-cyanophenyl)-1-isopropyl-N-(3-methyl-1,1-dioxidothietan-3-yl)-1H-pyrazolo[4,3-b]pyridine-6-carboxamide], 109 nM; for `C[C@]1(NC(=O)c2cc3c(cn2)c(-c2cncc(OC(F)F)c2)nn3-c2ccc(F)cc2)CCS(=O)(=O)C1` [Example 6, (S)-3-(5-(difluoromethoxy)pyridin-3-yl)-1-(4-fluorophenyl)-N-(3-methyl-1,1-dioxidotetrahydrothiophen-3-yl)-1H-pyrazolo[4,3-c]pyridine-6-carboxamide], 89 nM.
For `Cc1cc(C(=O)N[C@@]2(C)CCS(=O)(=O)C2)cc2c1c(-c1cccc(OC(F)F)c1)nn2C1CCOCC1` [Example 84, (S)-3-(3-(difluoromethoxy)phenyl)-4-methyl-N-(3-methyl-1,1-dioxidotetrahydrothiophen-3-yl)-1-(tetrahydro-2H-pyran-4-yl)-1H-indazole-6-carboxamide] the value was 13 nM; for `CC1(NC(=O)c2cnc3c(-c4cccc(OC(F)F)c4)nn(C4CC(O)C4)c3c2)CS(=O)(=O)C1` (centres unmarked) [Example 88, 3-(3-(difluoromethoxy)phenyl)-1-(3-hydroxycyclobutyl)-N-(3-methyl-1,1-dioxidothietan-3-yl)-1H-pyrazolo[4,3-b]pyridine-6-carboxamide], 80 nM; for `CC(C)n1nc(-c2cc(OC(F)F)ccc2F)c2ncc(C(=O)NC3(C)CS(=O)(=O)C3)cc21` [Example 113, 3-(5-(difluoromethoxy)-2-fluorophenyl)-1-isopropyl-N-(3-methyl-1,1-dioxidothietan-3-yl)-1H-pyrazolo[4,3-b]pyridine-6-carboxamide], 1 nM.
As for `Cn1nc(-c2cccc(OC(F)F)c2)c2ncc(C(=O)NC3(C)CS(=O)(=O)C3)cc21` [Example 26, 3-(3-(difluoromethoxy)phenyl)-1-methyl-N-(3-methyl-1,1-dioxidothietan-3-yl)-1H-pyrazolo[4,3-b]pyridine-6-carboxamide], the figure is 153 nM; as for `C[C@]1(NC(=O)c2cc3c(cn2)c(-c2cncc(OC(F)F)c2)nn3C2CCOCC2)CCS(=O)(=O)C1` [Example 79, (S)-3-(5-(difluoromethoxy)pyridin-3-yl)-N-(3-methyl-1,1-dioxidotetrahydrothiophen-3-yl)-1-(tetrahydro-2H-pyran-4-yl)-1H-pyrazolo[4,3-c]pyridine-6-carboxamide], 10000 nM.
`CC(C)n1nc(-c2cc(OC3CCC3)ccc2F)c2ncc(C(=O)NC3(C)CS(=O)(=O)C3)cc21` [Example 109, 3-(5-cyclobutoxy-2-fluorophenyl)-1-isopropyl-N-(3-methyl-1,1-dioxidothietan-3-yl)-1H-pyrazolo[4,3-b]pyridine-6-carboxamide] came in with an IC50 of 11 nM.
As for `CCOc1cc(-c2nn(C(C)C)c3cc(C(=O)N[C@@]4(C)CCC[C@H]4O)cnc23)c(F)cn1` [Example 57, 3-(2-ethoxy-5-fluoropyridin-4-yl)-N-((1S,2R)-2-hydroxy-1-methylcyclopentyl)-1-isopropyl-1H-pyrazolo[4,3-b]pyridine-6-carboxamide], the figure is 15 nM; as for `CC(C)n1nc(-c2cccc(C3(C(F)(F)F)CC3)c2)c2ncc(C(=O)NC3(C)CS(=O)(=O)C3)cc21` [Example 107, 1-isopropyl-N-(3-methyl-1,1-dioxidothietan-3-yl)-3-(3-(1-(trifluoromethyl)cyclopropyl)phenyl)-1H-pyrazolo[4,3-b]pyridine-6-carboxamide], 2280 nM.
`CC(C)(NC(=O)c1cnc2c(-c3cccc(OC(F)F)c3)cn(-c3ncc(F)cn3)c2c1)C(N)=O` [Example 18, N-(1-amino-2-methyl-1-oxopropan-2-yl)-3-(3-(difluoromethoxy)phenyl)-1-(5-fluoropyrimidin-2-yl)-1H-pyrrolo[3,2-b]pyridine-6-carboxamide] registered an IC50 of 3420 nM.
The compound `Cn1nccc1-c1cn(C2CCOCC2)c2cc(C(=O)N[C@@]3(C)CCS(=O)(=O)C3)c(F)cc12` [Example 83] registered a half-inhibitory concentration (IC50) of 5430 nM.
As for `CC(C)n1nc(-c2cccc(OC(F)F)c2)c2ncc(C(=O)NC(C)(C)C(C)(C)O)cc21` [Example 43, 3-(3-(difluoromethoxy)phenyl)-N-(3-hydroxy-2,3-dimethylbutan-2-yl)-1-isopropyl-1H-pyrazolo[4,3-b]pyridine-6-carboxamide], the midpoint of inhibition, the IC50, lay at 148 nM.
For `N[C@@H]1COC[C@H]1NC(=O)c1cnc2c(-c3cccc(OC(F)F)c3)cn(-c3ncc(F)cn3)c2c1` [Example 22, N-((3S,4S)-4-aminotetrahydrofuran-3-yl)-3-(3-(difluoromethoxy)phenyl)-1-(5-fluoropyrimidin-2-yl)-1H-pyrrolo[3,2-b]pyridine-6-carboxamide] the value was 630 nM; for `CC(C(N)=O)n1nc(-c2cc(OC(F)F)ccc2F)c2ncc(C(=O)NC3(C)CS(=O)(=O)C3)cc21` (centres unmarked) [Example 90, 1-(1-amino-1-oxopropan-2-yl)-3-(5-(difluoromethoxy)-2-fluorophenyl)-N-(3-methyl-1,1-dioxidothietan-3-yl)-1H-pyrazolo[4,3-b]pyridine-6-carboxamide], 480 nM.
For `CC(O)C(C)NC(=O)c1cnc2c(-c3cccc(OC(F)F)c3)nn(C(C)C)c2c1` (centres unmarked) [Example 45a, 3-(3-(difluoromethoxy)phenyl)-N-(3-hydroxybutan-2-yl)-1-isopropyl-1H-pyrazolo[4,3-b]pyridme-6-carboxamide] the value was 23 nM.
